Measurements published in publication PMC9106797, “Formation and Identification of a 5-(Hydroxymethyl)-2-Furfural-Zingerone Condensate and Its Cytotoxicity in Caco-2 Cells” (Frontiers in Nutrition, 2022).
“And” between values parts separate entries of the source, which are not always exact repeats. Equal values may be shown once.

What was measured:
[1] = Cell viability assay (CCK-8); format: cell-based; settings: human, Caco-2 cells, read-out: IC50, cytotoxicity against Caco-2 cells; for IC50 at 24 h: 24 h incubation; for IC50 at 48 h: 48 h incubation
Description: The Caco-2 cell line (ATCC HTB-37) was obtained from the American Type Culture Collection (Rockville, MD, USA). Cells were cultivated by the method of Kosińska-Cagnazzo et al. ([30]) with slight modifications. Specifically, α-MEM medium supplemented with 10% FBS, 1% penicillin/streptomycin, and 1% NEAA was used to cultivate Caco-2 cells at 37°C and 5% (v/v) CO2 atmosphere. When the cells reached 80–90% confluence, they were detached with 0.25% trypsin-EDTA and further sub-cultured on fresh growth medium. Cells between passages 30 and 35 were used.
Cell viability was measured by the CCK-8 method as described by Zhao et al. ([31]) with modifications. Briefly, Caco-2 cells at a density of 2.5 × 10^4 cells/well were seeded into 96-well plates and maintained at 37°C under a humidified atmosphere containing 5% CO2 and 95% air for 24 h. Subsequently, the origin culture medium was removed, and different concentrations (2, 4, 8, 16, 32, and 64 mM) of HMZ and HMF were added. Three duplicate wells were set for each concentration. The cells were further incubated for 24 and 48 h, respectively. Then, 10 μL of CCK-8 solution was added into each well for 2 h, and the absorbance was read at 450 nm on a microplate reader (Multiskan, Thermo, USA).

Caco-2 cells = assay: Absorption of HMZ in Caco-2 cells (HPLC of treated solution); format: in vitro ADME; settings: 2 h, 37°C
Description: HMZ absorption was evaluated according to de Oliveira et al. with slight modifications ([32]). Briefly, Caco-2 cells were inoculated in 6-well plates at the density of 2 × 10^4 cells/well (2 mL) and cultured until 90% confluence at 37°C with 5% CO2. Then, the cells were washed thrice with 1 mL of HBSS. Another 1 mL of HBSS was added for further culture for 30 min. Ten microliters of HMZ solution (pH 7.4) at concentrations of 1–100 μM were added separately and cultivated for 2 h to allow the adduct solution to be absorbed by cells under certain condition (37°C, 5% CO2/95% air). The treated solution was transferred into Eppendorf tubes for HPLC analysis. The control of each sample under different concentrations was the respective sample without incubation, and each of the absorption rate of the adduct by Caco-2 cells was calculated as follows:
(1) Absorption rate (%) =S1−S2/S1× 100%
where S1 is the peak area of the control, and S2 is the peak area of the sample incubated for 2 h.

[2] = Effect of reaction temperature on HMZ amount (one-factor-at-a-time, HPLC); format: physicochemical; settings: temperature over 50°C, 3 h
Description: A one-factor-at-a-time design was applied to estimate the effects of different reaction parameters on HMF elimination by ZGR, as well as the adduct formation between HMF and ZGR. ZGR/HMF in the molar ratio of 2: 1 was mixed in a three-necked flask and incubated at 40°C for different durations (0.5, 1.0, 1.5, 2.0, 2.5, and 3.0 h) to investigate the effect of reaction time. ZGR/HMF in the molar ratio of 2: 1 was mixed and reacted for 3 h at different temperature levels (20, 30, 40, 50, 60, and 70°C) to study the effect of temperature. In addition, temperature and reaction duration were kept constant at 40°C and 3 h, respectively, to evaluate the effect of different ZGR/HMF molar ratios (4: 1, 3: 1, 2: 1, 1: 1, and 1: 2). At the end of each reaction, 30 μL of the aqueous reaction mixture was diluted with methanol to a final volume of 500 μL for HPLC analysis. HMF and HMZ were quantified by comparing their peak areas to each standard curve.

[3] = In vitro simulated digestion (mouth, gastric, intestinal stages), HPLC; format: in vitro ADME; settings: for decrease of HMZ content after digestion: 37°C
Description: The adduct was subjected to in vitro simulated digestion at three stages, namely, the mouth, gastric, and intestinal stages, to evaluate its stability ([28], [29]). Briefly, HMZ (2 mg) was dissolved in DMSO (200 μL), diluted with ultra-pure water to the final concentration of 0.5 mg/mL, and then mixed with 6 mL of SSF in a flask. The mixture was magnetically stirred at 100 r/min for 2 min at 37°C to mimic saliva digestion. Afterward, 10 mL of SGF was added to simulate the gastric phase, and the mixture was reacted for 2 h under the same condition. Subsequently, 20 mL of SIF was added for the simulation of intestinal digestion for another 2 h. Samples (100 μL) were withdrawn at the end of each stage of the digestion process for HPLC analysis. Each digestion process was repeated in triplicate, and the content of HMZ was calculated by referring to the calibration curve.

FVB/N mice = test system: FVB/N mice; parameters: method as in PMID 22349055; settings: FVB/N mice, 31.25, 62.5, 125 and 250 mg SMF/kg; cited from earlier work

Structure (SMILES) | IC50 at 24 h [1] [mM] | IC50 at 48 h [1] [mM] | absorption (Caco-2 cells; HMZ 1 μM) | absorption rate (Caco-2 cells; HMZ 1 μM) | absorption (Caco-2 cells; HMZ 4 μM) | absorption rate (Caco-2 cells; HMZ 4 μM) | absorption (Caco-2 cells; HMZ 20 μM) | absorption rate (Caco-2 cells; HMZ 20 μM) | absorption (Caco-2 cells; HMZ 100 μM) | absorption rate (Caco-2 cells; HMZ 100 μM) | thermal stability in the reaction mixture [2] | decrease of HMZ content after digestion ([3]; after SGF (simulated gastric fluid), further 2 h) [%] | decrease of HMZ content after digestion ([3]; after SIF (simulated intestinal fluid), further 2 h) [%] | decrease of HMZ content after digestion ([3]; after SSF (simulated salivary fluid), 2 min) [%] | stability in simulated in vitro digestion ([3]; three digestion conditions) | liver toxicity (FVB/N mice)
COc1cc(CCC(=O)/C=C/c2ccc(CO)o2)ccc1O [HMZ] | 41.5 ± 5.33 | 25.4 ± 3.12 | 0.61 ± 0.75 ×10^-5 μmol | 60.74% and 60.74 ± 7.51% | 2.85 ± 0.03 ×10^-5 μmol | 71.38% and 71.38 ± 0.80% | 11.22 ± 0.03 ×10^-5 μmol | 56.11% and 56.11 ± 1.85% | 34.71 ± 0.17 ×10^-5 μmol | 34.71% and 34.71 ± 1.68% | appeared to degrade | 14.19 | 24.06 | 7.14 | moderate level | –
O=Cc1ccc(CO)o1 [HMF, 5-(Hydroxymethyl)-2-furfural] | 35.4 ± 4.03 | 19.2 ± 2.1 | – | – | – | – | – | – | – | – | – | – | – | – | – | –
O=Cc1ccc(COS(=O)(=O)O)o1 [SMF, 5-sulfo-oxymethylfurfural] | – | – | – | – | – | – | – | – | – | – | – | – | – | – | – | hepatic lesions
